pIC50: −log10 of the molar value.
Experiments:
Assay type in all cases: organism-based
D(1A) dopamine receptor [1] = biological target: T1, D(1A) dopamine receptor (Rattus norvegicus, UniProt P18901); assay: In vivo binding affinity against dopamine (D1) receptor in rat caudate-putamen tissue using [3H]SCH-23390 as radioligand
D(2) dopamine receptor [2] = biological target: T2, D(2) dopamine receptor (Rattus norvegicus, UniProt P61169); assay: In vivo binding affinity against dopamine (D2) receptor in rat caudate-putamen tissue using [3H]nemonapride as radioligand
D(2) dopamine receptor [3] = biological target: T2, D(2) dopamine receptor; assay: In vivo inhibitory activity against dopamine (D2) receptor in rat caudate-putamen tissue
D(1A) dopamine receptor [4] = biological target: T1, D(1A) dopamine receptor; assay: In vivo inhibitory activity against dopamine (D1) receptor in rat caudate-putamen tissue

T2 sequence (P61169 whole entry): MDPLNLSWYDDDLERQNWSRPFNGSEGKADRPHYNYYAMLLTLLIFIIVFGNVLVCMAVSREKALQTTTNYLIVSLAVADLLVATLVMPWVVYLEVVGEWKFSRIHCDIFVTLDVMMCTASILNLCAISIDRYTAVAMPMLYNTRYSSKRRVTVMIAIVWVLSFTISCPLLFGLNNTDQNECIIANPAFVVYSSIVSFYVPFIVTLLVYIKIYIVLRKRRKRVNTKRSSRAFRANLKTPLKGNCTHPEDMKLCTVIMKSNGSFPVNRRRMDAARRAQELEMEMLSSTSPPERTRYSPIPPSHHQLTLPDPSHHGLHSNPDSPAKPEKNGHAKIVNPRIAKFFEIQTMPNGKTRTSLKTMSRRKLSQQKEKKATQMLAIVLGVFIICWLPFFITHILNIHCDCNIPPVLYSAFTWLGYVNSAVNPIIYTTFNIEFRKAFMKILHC
T1 sequence (P18901 whole entry): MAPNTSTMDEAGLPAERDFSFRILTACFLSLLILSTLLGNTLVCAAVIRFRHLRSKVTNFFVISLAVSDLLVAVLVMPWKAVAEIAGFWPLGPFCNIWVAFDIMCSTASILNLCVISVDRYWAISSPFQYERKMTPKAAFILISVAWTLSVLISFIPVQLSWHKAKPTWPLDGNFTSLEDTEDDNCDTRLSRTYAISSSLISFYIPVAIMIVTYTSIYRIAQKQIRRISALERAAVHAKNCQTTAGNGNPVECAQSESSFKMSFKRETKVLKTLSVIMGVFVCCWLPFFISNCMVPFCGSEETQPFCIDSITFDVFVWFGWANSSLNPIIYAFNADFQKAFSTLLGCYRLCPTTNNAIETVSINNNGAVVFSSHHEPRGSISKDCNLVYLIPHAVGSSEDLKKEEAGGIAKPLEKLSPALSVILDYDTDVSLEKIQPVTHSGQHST

SMILES | pIC50 (D(1A) dopamine receptor [1]) | pIC50 (D(2) dopamine receptor [2]) | pIC50 (D(2) dopamine receptor [3]) | pIC50 (D(1A) dopamine receptor [4])
CCN1CCC[C@H]1CNC(=O)c1c(OC)ccc(I)c1O [IOLOPRIDE] | < 5.00 | 8.92 | 8.77 | < 5.00
CCN1CCC[C@H]1CNC(=O)c1c(O)ccc(I)c1OC |  |  | 6.71 | < 5.00
CCN1CCC[C@H]1CNC(=O)c1c(O)c(Cl)cc(Cl)c1OC [RACLOPRIDE] |  |  |  | < 5.00

Source: ChEMBL document CHEMBL1144983, “Synthesis and affinity of a possible byproduct of electrophilic radiolabeling of [123I]IBZM” (Bioorg Med Chem Lett, 2003)
